How the values were obtained:
Format in all cases: cell-based, human
[1] = system: caspases 3/7, 8, and 9 in MDA-MB-231 cells; assay: Caspase-Glo assay, MDA-MB-231; details: IC50 value, 24 h; vs vehicle
Experimental: The activities of caspases 3/7, 8, and 9 were measured by using the Caspase-Glo Assay according to the manufacturer’s guidelines (Caspase-Glo 3/7, 8, and 9 Assay Systems, Promega Corporation, Madison, WI, USA), as already described. The luminescence was detected in a plate-reading luminometer (Synergy H1 Hybrid Reader, BioTek) for 30 min to 3 h (λex/em = 490/570 nm). Results were reported as signal-to-noise ratio (background was determined from the culture medium without cells). The experiments were performed in triplicate.

[2] = system: β-actin in MDA-MB-231 cells; assay: Actin immunofluorescence, MDA-MB-231; details: 24 h; compound 1 at its IC50 value, LA 0.1 µM
Experimental: (§1) The MitoTracker Deep Red FM probe (MitoTracker Mitochondrion-Selective Probes, Invitrogen European Headquarters, Paisley, PA4 9RF, UK) was used for mitochondrial staining, as previously described. For immunofluorescence analysis, the cells were seeded and further processed, as reported by Iacopetta et al.. The primary antibodies used were: rabbit anti-β-Actin and vimentin (Santa Cruz Biotechnology, Dallas, TX, USA), mouse anti cytochrome c and NF-κB p65 (Abcam, Cambridge, UK), diluted 1:100 in bovine serum albumin (BSA) 2% overnight at 4 °C. The secondary antibodies were: Alexa Fluor® 488 conjugate goat-anti-rabbit and Alexa Fluor® 568 conjugate goat-anti-mouse (Thermo Fisher Scientific, MA, USA), diluted 1:500 and incubated for 2h at 37 °C. DAPI 0.2 μg/mL (Sigma Aldrich, Milan, Italy) was used for nuclei staining. […] All the images were acquired and processed using the LAS-X software.

[3] = system: cytochrome c in MDA-MB-231 cells; assay: Mitochondria staining and cytochrome c detection, MDA-MB-231; details: IC50 value, 24 h
Experimental: as §1

MDA-MB-231 cells = assay: TUNEL assay, MDA-MB-231; details: IC50, 24 h
From the text: Images are representative of three independent experiments.

Cn1ccn(CC([O-])c2ccccc2)[c]1=[Au+]=[c]1n(C)ccn1CC([O-])c1ccccc1.[Cl-].[Na+].[Na+] (stereo not drawn) [Compound 1]
caspase-3 and -7 activity, MDA-MB-231 [1]: clear increase | caspase-8 activity, MDA-MB-231 [1]: significant rise | caspase-9 activity, MDA-MB-231 [1]: no increase | actin organization in MDA-MB-231 cells [2]: altered actin bundles organization | cytochrome c localization, MDA-MB-231 [3]: cytochrome c is localized within mitochondria | apoptosis (TUNEL), MDA-MB-231 (MDA-MB-231 cells): induced apoptosis

Reference: paper PMC9146163, “Novel Au Carbene Complexes as Promising Multi-Target Agents in Breast Cancer Treatment” (Pharmaceuticals, 2022)
